Laboratory results: US20160375042A1, “USE OF CAMPTOTHECIN DERIVATIVE IN PREPARING PHARMACEUTICAL USED FOR TREATING MULTIPLE MYELOMA” (priority 2014, published 2016)

Columns and labels:
[1] = Water-solubility test of compounds of Formula II and Formula IV; type: physicochemical; settings: the C-20 phosphite salt (Formula II) itself, read-out: Water-solubility of Comp of Formula II
[2] = tested on: S1 and S1-M1-80 (characteristic expression of ABCG2/BCRP); test: Anti-drug resistance test (MTT, resistance index); type: cell-based; settings: S1-M1-80 (ABCG2/BCRP) versus S1 cells, 72 h, from IC50
Experimental: Logarithmic growth phase S1 and S1-M1-80 (characteristic expression of ABCG2/BCRP) were prepared as cell suspension of 2.5×10^4 cells/ml and 6×10^4 cells/ml, and were seeded in into 96-well plates with 0.19 ml/well. After incubating in cell incubator for 24 hours at 37° C., 5% CO2, sample solutions in various concentrations were added at 0.01 ml/well. Stroke-physiological saline solution is used as control well. Each treatment is conducted in 3 parallel wells. The drugs were added and incubated additional 72 h hours. And 5 mg/ml of MTT is added at 0.02 ml/well before four hours of the end the incubation. The culture liquid is removed at the end of incubation. Each well was added 0.1 ml of DMSO and OD values were measured at wavelength of 540 nm and reference wavelength of 655 nm. The experiment was repeated three times. Equation 1 is used to calculate cell growth inhibition rate (IR); and Equation 2 is used to calculate resistance index. Bliss method is used to calculate the 50% inhibitory concentration (IC50).

[3] = tested on: human multiple myeloma cells NCI-H929 xenografts; test: Tumor inhibitory effect on multiple myeloma cells NCI-H929 xenografts in nude mice; type: in vivo, BALB/c nude mouse
Experimental: Multiple myeloma cells were routinely passaged in vitro, inoculated in 40 6-7-week-old BALB/c nude mouse, each mouse was subcutaneously injected human multiple myeloma cells NCI-H929 at its right axillary. Weighed after two days. The mice were randomly divided into five groups, eight in each group. Each group was dosed as follows: • i. physiological saline control group • ii. Topotecan positive control group, 2 mg/kg, once every 4 days, intraperitoneal injection • iii. WQ1001, high-dose group, 35 mg/kg, once every 4 days, intraperitoneal injection • iv. WQ1001, middle dose group, 25 mg/kg, once every 4 days, intraperitoneal injectionv. v. WQ1001, low dose group, 18 mg/kg, once every 4 days, intraperitoneal injection
Body weight(BW) as well as long diameter and short diameter of tumors were measured every two days. Tumor volume was calculated according to the Equation 1. On the 11th day after inoculation, the mice were weighed, long diameter and short diameter of tumors were measured, and relative tumor volume (RTV) was calculated according to Equation 2. Mice were sacrificed by cervical dislocation and the tumor mass was stripped and weighed. Inhibition rate (IR) was calculated according to the Equation 3. RTV and tumor weight (TW) for each group were analyzed through T-test.

[4] = Topotecan 2 mg/kg, once every 4 days, intraperitoneal, 11th day
[5] = Topotecan 2 mg/kg, once every 4 days, intraperitoneal, end (11th day after inoculation)
[6] = Topotecan 2 mg/kg, once every 4 days, intraperitoneal, initial

CC[C@@]1(O[PH](=O)[O-])C(=O)OCc2c1cc1n(c2=O)Cc2c-1nc1ccccc1c2OC.[Na+] [WQ1122]
solubility [1]: > 10000 µg/mL | Resistance index [2]: 5

CCc1c2c(nc3ccccc13)-c1cc3c(c(=O)n1C2)COC(=O)[C@@]3(CC)O[PH](=O)[O-].[Na+] [WQ1107]
solubility [1]: > 10000 µg/mL

CCc1ccc2nc3c(cc2c1)Cn1c-3cc2c(c1=O)COC(=O)[C@@]2(CC)O[PH](=O)[O-].[Na+] [WQ1119]
solubility [1]: > 10000 µg/mL

CC[C@@]1(O[PH](=O)[O-])C(=O)OCc2c1cc1n(c2=O)Cc2c-1nc1ccc(C)cc1c2OC.[Na+] [WQ1123]
solubility [1]: > 10000 µg/mL

CCc1c2c(nc3cc(F)c(F)cc13)-c1cc3c(c(=O)n1C2)COC(=O)[C@@]3(CC)O[PH](=O)[O-].[Na+] [WQ1111]
solubility [1]: > 10000 µg/mL | Resistance index [2]: 7

CC[C@@]1(O)C(=O)OCc2c1cc1n(c2=O)Cc2cc3c(CN(C)C)c(O)ccc3nc2-1 [Topotecan, reference compound]
anti-tumor effect on NCI-H929 xenografts in nude mice (in words) ([3]; 2 mg/kg): no significant anti-tumor effect | IR By RTV % [3, 4]: 37.3% | IR By TW % [3, 4]: 52.0% | RTV (X ± SD) [3, 4]: 25.3 ± 14.8 | TW (X ± SD, g) [3, 4]: 0.71 ± 0.44 g | Bw (X ± SD, g) end [3, 5]: 19.2 ± 1.3 g | TV (X ± SD, mm^3) End [3, 5]: 1123.2 ± 608.9 mm^3 | Bw (X ± SD, g) initial [3, 6]: 17.2 ± 1.0 g | TV (X ± SD, mm^3) initial [3, 6]: 45.9 ± 6.0 mm^3 | Resistance index [2]: 210

CCCCc1ccc2nc3c(c(OC)c2c1)Cn1c-3cc2c(c1=O)COC(=O)[C@@]2(CC)O[PH](=O)[O-].[Na+] [WQ1126]
solubility [1]: > 10000 µg/mL

CCc1c2c(nc3cc(Cl)c(Cl)cc13)-c1cc3c(c(=O)n1C2)COC(=O)[C@@]3(CC)O[PH](=O)[O-].[Na+] [WQ1113]
solubility [1]: > 10000 µg/mL

CC[C@@]1(O[PH](=O)[O-])C(=O)OCc2c1cc1n(c2=O)Cc2c-1nc1ccccc1c2CC[Si](C)(C)C.[Na+] [WQ1115]
solubility [1]: > 10000 µg/mL | Resistance index [2]: 25

CC[C@@]1(O[PH](=O)[O-])C(=O)OCc2c1cc1n(c2=O)Cc2cc3cc4c(cc3nc2-1)OCO4.[Na+] [WQ1104]
solubility [1]: > 10000 µg/mL

CC[C@@]1(O[PH](=O)[O-])C(=O)OCc2c1cc1n(c2=O)Cc2cc3cc(C)ccc3nc2-1.[Na+] [WQ1118]
solubility [1]: > 10000 µg/mL | Resistance index [2]: 67

CCc1c2c(nc3cc4c(cc13)OCCO4)-c1cc3c(c(=O)n1C2)COC(=O)[C@@]3(CC)O[PH](=O)[O-].[Na+] [WQ1103]
solubility [1]: > 10000 µg/mL

CC[C@@]1(O[PH](=O)[O-])C(=O)OCc2c1cc1n(c2=O)Cc2cc3cc(Cl)ccc3nc2-1.[Na+] [WQ1117]
solubility [1]: > 10000 µg/mL | Resistance index [2]: 9

CC[C@@]1(O[PH](=O)[O-])C(=O)OCc2c1cc1n(c2=O)Cc2cc3c(Cl)c4c(cc3nc2-1)OCO4.[Na+] [WQ1106]
solubility [1]: > 10000 µg/mL

CC[C@@]1(O[PH](=O)[O-])C(=O)OCc2c1cc1n(c2=O)Cc2cc3cc4c(cc3nc2-1)OCCO4.[Na+] [WQ1102]
solubility [1]: > 10000 µg/mL | Resistance index [2]: 15

CCCc1ccc2nc3c(cc2c1)Cn1c-3cc2c(c1=O)COC(=O)[C@@]2(CC)O[PH](=O)[O-].[Na+] [WQ1120]
solubility [1]: > 10000 µg/mL

CCCc1ccc2nc3c(c(OC)c2c1)Cn1c-3cc2c(c1=O)COC(=O)[C@@]2(CC)O[PH](=O)[O-].[Na+] [WQ1125]
solubility [1]: > 10000 µg/mL

CCCCc1ccc2nc3c(cc2c1)Cn1c-3cc2c(c1=O)COC(=O)[C@@]2(CC)O[PH](=O)[O-].[Na+] [WQ1121]
solubility [1]: > 10000 µg/mL

CCc1c2c(nc3ccc(Cl)cc13)-c1cc3c(c(=O)n1C2)COC(=O)[C@@]3(CC)O[PH](=O)[O-].[Na+] [WQ1109]
solubility [1]: > 10000 µg/mL

CCc1ccc2nc3c(cc2c1OC)Cn1c-3cc2c(c1=O)COC(=O)[C@@]2(CC)O[PH](=O)[O-].[Na+] [WQ1124]
solubility [1]: > 10000 µg/mL

CCc1c2c(nc3cc(F)c(C)cc13)-c1cc3c(c(=O)n1C2)COC(=O)[C@@]3(CC)O[PH](=O)[O-].[Na+] [WQ1112]
solubility [1]: > 10000 µg/mL

CC[C@@]1(O[PH](=O)[O-])C(=O)OCc2c1cc1n(c2=O)Cc2c-1nc1ccccc1c2[Si](C)(C)C(C)(C)C.[Na+] [WQ1116]
solubility [1]: > 10000 µg/mL | Resistance index [2]: 13

CCc1c2c(nc3ccc(C)cc13)-c1cc3c(c(=O)n1C2)COC(=O)[C@@]3(CC)O[PH](=O)[O-].[Na+] [WQ1108]
solubility [1]: > 10000 µg/mL | Resistance index [2]: 38

CC[C@@]1(O[PH](=O)[O-])C(=O)OCc2c1cc1n(c2=O)Cc2c-1nc1ccccc1c2/C=N/OC(C)(C)C.[Na+] [WQ1114]
solubility [1]: > 10000 µg/mL | Resistance index [2]: 19

CCc1c2c(nc3ccc(O)cc13)-c1cc3c(c(=O)n1C2)COC(=O)[C@]3(O)CC [SN38, reference compound]
Resistance index [2]: 290

CCc1c2c(nc3cc4c(cc13)OCO4)-c1cc3c(c(=O)n1C2)COC(=O)[C@@]3(CC)O[PH](=O)[O-].[Na+] [WQ1105]
solubility [1]: > 10000 µg/mL | Resistance index [2]: 20

CCc1c2c(nc3ccc(Br)cc13)-c1cc3c(c(=O)n1C2)COC(=O)[C@@]3(CC)O[PH](=O)[O-].[Na+] [WQ1110]
solubility [1]: > 10000 µg/mL
